The results in this text go back to patent US6566545B2, “Menthol derivatives and process for preparing the same” (Pacific Corporation, priority 2001, dated 2003).

The test system of series [1] is back of New Zealand White Rabbit. The experiment in a line: Retinol-induced skin irritation on rabbit back, Draize Primary Irritation Index. The format is in vivo. The note with it: for Irritation Index: Draize Primary Irritation Index, 0.01% agent applied with 1000 I.U. retinol as irritation source, twice a day, rabbit back skin; for Relative Ratio: irritation relative to blank applied only with retinol, 0.01% agent. The method, then:
The hairs on the back of New Zealand White Rabbit were removed and fed with sufficient water and nutrition. At the areas of 1.5 cm×1.5 cm on the back of the rabbit, menthol, menthol 3-aminopropylphosphate (MPA) and 1000 I.U. of retinol as irritation source were applied respectively. The number of applying positions for each rabbit was 8˜10, and the agents were applied twice a day with 6 hours of time interval. The applied positions were exposed to air. Erythema, rash or edema was measured everyday after 48 hours has passed from the first apply during 1 week to observe the irritation. According to the “Primary Irritation Index” of Draize, the degree of irritation was determined. Relative irritation was calculated with the ratio to the blank sample that applied only with retinol, and the results are shown in Table 1 and FIG. 1.

Series [2] in a line: Solubility in aqueous and aqueous mixed solution. An excerpt:
To observe the solubility of the menthol 3-aminopropylphosphate in the aqueous phase, solubility were measure in aqueous and aqueous mixed solution.
Menthol was used as relativity group.

The subject of the next series is phosphatase. Briefly: Hydrolysis by phosphatase in phosphoric buffer pH 7.4, HPLC. The note with it: 3-aminopropylphosphoric acid measured by HPLC (FIG. 2). The format is in vitro ADME. The method, then: To clarify the activity of menthol 3-aminopropylphosphate obtained in Example 2, the hydrolysis of the menthol 3-aminopropylphosphate by a phosphatase in the skin was observed. That is, the preparation of menthol and 3-aminopropylphosphoric acid by the hydrolysis was observed.
3-aminopropylphosphate and phosphatase were added to phosphoric buffer solution with pH 7.4, then, hydrolysis was performed. The phosphatase used above was Alkaline Phosphate manufactured by SIGMA, Co., Ltd.
The amount of the 3-aminopropylphosphoric acid prepared by the hydrolysis was measured by means of HPLC, and the results are shown in FIG. 2.

As to `CC1CCC(C(C)C)C(O)C1` (stereo not drawn) [menthol], in series [1], the “Irritation Index” value is listed as 9.34 and the “Relative Ratio” value was determined as 0.97.
The matching figures for `C[C@]12CCC(=O)C=C1CC[C@@H]1[C@@H]2[C@@H](O)C[C@@]2(C)[C@H]1CC[C@]2(O)C(=O)CO` [hydrocortisone]: 5.10 and 0.53.
Turning to `CC1CCC(C(C)C)C(OP(=O)(O)OCCCN)C1` (stereo not drawn) [menthol 3-aminopropyl phosphate, Menthol 3-Aminopropylphosphate], in series [1], the “Irritation Index” value is listed as 6.07. Besides, the “Relative Ratio” value in series [1] is given as 0.63. Moreover, the solubility in series [2] (H2O) is reported as 0.3%; in series [2] (H2O:1,3-BG = 1:1), 5%; in series [2] (H2O:Ethanol = 1:1) it was 6%; in series [2] (H2O:Ethanol = 5:1), 1%. The “aqueous solubility compared with menthol” value in series [2] (in words) is “increased very much compared with menthol itself”. Further, the hydrolysis by phosphatase entry in the series on phosphatase is “hydrolyzed by the phosphatase of the skin and formed menthol and 3-aminopropylphosphoric”.
